According to patent US20140329868A1, “METHODS FOR TREATING HYPERTENSION” (TAKEDA PHARMACEUTICALS U.S.A., INC., priority 2005, published 2014):

Experiments:
Format in all cases: in vivo
[1] = test system: oxonic acid (OA)-induced hyperuricemic model in Sprague-Dawley rats; experiment: Example 4: renal arteriolar morphology in normal and OA-dosed rats
Experimental: Materials and Methods. To produce hyperuricemia, rats received OA (Sigma, St Louis Mo., USA) 750 mg/kg body weight daily by gastric gavage. To investigate the treatment effect of febuxostat (also referred to herein as “Fx”), the drug was administered in drinking water at 50 mg/L (approximately 5-6 mg/kg/day) four weeks after OA dosing while the respective controls received 5.84 mg/L of NaCl in drinking water (to maintain a salt concentration equivalent to the Febuxostat-containing water). The following four groups (n=10-11) were included in the study: Group 1, normal control rats which received no treatment for eight weeks; Group 2, Normal+Febuxostat rats which received no treatment for four weeks and then were treated with febuxostat for four weeks from Weeks 5 to 8; Group 3, OA rats which received OA for eight weeks; and Group 4, OA+Febuxostat rats which received OA for eight weeks and febuxostat for four weeks from Weeks 5 to 8. Body weight, food and water intakes were measured daily. Systolic blood pressure, obtained in conscious rats by a tail cuff sphygmomanometer, and plasma uric acid were measured in all animals at baseline and at the end of four and eight weeks. […]
Renal Histology and Quantification of Morphology. […] Arteriolar morphology was assessed by indirect peroxidase immunostaining for alpha smooth-muscle actin (DAKO Corp, Carpinteria, Calif., USA). […]
For each arteriole, the outline of the vessel and its internal lumen (excluding the endothelium) were generated using computer analysis to calculate the total medial area (outline−inline) in 10 arterioles per biopsy. The media/lumen ratio was calculated by the outline/inline relationship (See, Sanchez-Lozada L G, et al., Am J Physiol Renal Physiol 283:F1105-F1110, (2002) and Sanchez-Lozada L G, et al., Kidney Int 67:237-247 (2005)). Quantifications were performed blinded.
(§1) Statistical Analysis. Values were expressed as mean±standard error of the mean (hereinafter “SEM”). In the study, values from the respective four treatment groups were analyzed by one-way analysis of variance (hereinafter “ANOVA”). […]

[2] = test system: oxonic acid (OA)-induced hyperuricemic model in Sprague-Dawley rats; experiment: Example 4: micropuncture glomerular hemodynamics and mean arterial pressure under anesthesia in normal and OA-dosed rats; conditions: for mean arterial blood pressure (effect in words): end of study, FIG. 3
Experimental: Materials and Methods. To produce hyperuricemia, rats received OA (Sigma, St Louis Mo., USA) 750 mg/kg body weight daily by gastric gavage. To investigate the treatment effect of febuxostat (also referred to herein as “Fx”), the drug was administered in drinking water at 50 mg/L (approximately 5-6 mg/kg/day) four weeks after OA dosing while the respective controls received 5.84 mg/L of NaCl in drinking water (to maintain a salt concentration equivalent to the Febuxostat-containing water). The following four groups (n=10-11) were included in the study: Group 1, normal control rats which received no treatment for eight weeks; Group 2, Normal+Febuxostat rats which received no treatment for four weeks and then were treated with febuxostat for four weeks from Weeks 5 to 8; Group 3, OA rats which received OA for eight weeks; and Group 4, OA+Febuxostat rats which received OA for eight weeks and febuxostat for four weeks from Weeks 5 to 8. Body weight, food and water intakes were measured daily. Systolic blood pressure, obtained in conscious rats by a tail cuff sphygmomanometer, and plasma uric acid were measured in all animals at baseline and at the end of four and eight weeks. A renal micropuncture procedure along with systemic arterial blood pressure monitoring under pentobarbital anesthesia were performed at the end of eight weeks followed by morphologic evaluation of the renal preglomerular microvasculature.
Micropuncture Procedure to Assess Glomerular Hemodynamics. Animals were anesthetized with pentobarbital sodium (30 mg/kg, i.p.) and placed on a thermoregulated table to maintain body temperature at 37° C. Trachea, jugular veins, femoral arteries and the left ureter were catheterized with polyethylene tubing (PE-240, PE-50 and PE-10). The left kidney was exposed, placed in a Lucite holder, sealed with agar and covered with Ringer's solution. Mean arterial pressure (hereinafter “MAP”) was monitored using a pressure transducer (Model p23 db; Gould, San Juan, PR) connected to the catheter in the femoral artery and recorded on a polygraph (Grass Instruments, Quincy, Mass., USA). Blood samples were taken periodically and replaced with blood from a donor rat. Rats were maintained under euvolemic conditions by infusion of 10 mL/kg of body weight of isotonic rat plasma during surgery, followed by an infusion of 25% polyfructosan at 2.2 mL/h (Mutest, Fresenius Kabi, Linz, Austria). After 60 min, five to seven samples of proximal tubular fluid were obtained to determine flow rate and polyfructosan concentrations. Intratubular pressure under free-flow (hereinafter “FF”) and stop-flow (hereinafter “SFP”) conditions and peritubular capillary pressure (hereinafter “Pc”) were measured in other proximal tubules with a servo-null device (Servo Nulling Pressure System; Instrumentation for Physiology and Medicine, San Diego, Calif., USA). Glomerular colloid osmotic pressure was estimated from protein concentrations obtained from blood of the femoral artery (hereinafter “Ca”) and surface efferent arterioles (hereinafter “Ce”). Polyfructosan was measured in plasma and urine samples by the anthrone-based technique of Davidson and Sackner (See, Davidson W D et al., J Lab Clin Med 62:351-356 (1963)). Plasma samples were deproteinated first with trichloroacetic acid. After centrifugation, the supernatant was used for polyfructosan measurement. Polyfructosan concentrations in plasma and urine samples were assessed by addition of anthrone reagent followed by incubation at 45° C. for 50 min and reading in a spectrophotometer set at wavelength of 620 nm. Concentrations were calculated by interpolating the absorbance values using a standard curve (0.01-0.05 mg/mL). Total glomerular filtration rate (hereinafter “GFR”) was calculated using the following formula: GFR=(U×V)/P, where U is the polyfructosan concentration in urine, V is urine flow rate, and P is the polyfructosan concentration in plasma. […]

[3] = test system: oxonic acid (OA)-induced hyperuricemic model in Sprague-Dawley rats; experiment: Example 4: systolic blood pressure by tail cuff in conscious normal and OA-dosed rats; conditions: FIG. 2
Experimental: Materials and Methods. To produce hyperuricemia, rats received OA (Sigma, St Louis Mo., USA) 750 mg/kg body weight daily by gastric gavage. To investigate the treatment effect of febuxostat (also referred to herein as “Fx”), the drug was administered in drinking water at 50 mg/L (approximately 5-6 mg/kg/day) four weeks after OA dosing while the respective controls received 5.84 mg/L of NaCl in drinking water (to maintain a salt concentration equivalent to the Febuxostat-containing water). […] Body weight, food and water intakes were measured daily. Systolic blood pressure, obtained in conscious rats by a tail cuff sphygmomanometer, and plasma uric acid were measured in all animals at baseline and at the end of four and eight weeks. […]
Evaluation. Food and water intake were determined daily. Systolic blood pressure (hereinafter “SBP”) was measured in conscious animals by a tail cuff sphygmomanometer using an automated system (XBP-100, Kent Scientific Co, USA). […] Plasma UA, insulin and triglycerides were quantified using commercial kits (Diagnostic Chemicals Ltd, USA; Crystalchem, USA and Spinreact, Spain, respectively).
as §1

[4] = Normal + FX rats, end of eight weeks
[5] = OA + Fx rats, end of eight weeks

Cc1nc(-c2ccc(OCC(C)C)c(C#N)c2)sc1C(=O)O [febuxostat, 2-[3-cyano-4-(2-methylpropoxy)phenyl]-4-methylthiazole-5-carboxylic acid]
thickening of the afferent arteriole (medial area), effect in words ([1]; OA-treated rats, FIG. 4): able to alleviate this thickening
arteriolar media-lumen ratio (effect in words) ([1]; OA-treated rats, FIG. 5): significantly reduced
arteriolar morphology (effect in words) ([1]; normal rats): no effect on arteriolar morphology
FF (free flow tubular pressure) [2, 4]: 13.4 ± 0.8 mmHg
GFR (glomerular filtration rate) [2, 4]: 0.9 ± 0.1 mL/min
Kf (ultrafiltration coefficient) [2, 4]: 0.046 ± 0.004 nL/s · mmHg
PGC (glomerular capillary pressure) [2, 4]: 46.3 ± 1.4 mmHg
Pc (peritubular capillary pressure) [2, 4]: 12.5 ± 0.8 mmHg
QA (glomerular plasma flow) [2, 4]: 135.0 ± 11.2 nL/min
SFP (stop flow pressure) [2, 4]: 30.7 ± 0.8 mmHg
SNGFR (single nephron GFR) [2, 4]: 34.6 ± 2.3 nL/min
MAP (mean arterial pressure) ([2]; Normal + FX rats, end of eight weeks, under anesthesia): 123 ± 3 mmHg
FF (free flow tubular pressure) [2, 5]: 12.9 ± 0.5 mmHg
GFR (glomerular filtration rate) [2, 5]: 1.0 ± 0.1 mL/min
Kf (ultrafiltration coefficient) [2, 5]: 0.070 ± 0.011 nL/s · mmHg
PGC (glomerular capillary pressure) [2, 5]: 46.5 ± 1.0 mmHg
Pc (peritubular capillary pressure) [2, 5]: 13.2 ± 0.7 mmHg
QA (glomerular plasma flow) [2, 5]: 183.6 ± 21.4 nL/min
SFP (stop flow pressure) [2, 5]: 29.7 ± 1.0 mmHg
SNGFR (single nephron GFR) [2, 5]: 45.7 ± 5.2 nL/min
ultrafiltration coefficient (Kf) compared to the other groups (in words) [2, 5]: numerically, but insignificantly higher
MAP (mean arterial pressure) ([2]; OA + Fx rats, end of eight weeks, under anesthesia, listed as Fx): 112 ± 5 mmHg
elevation in glomerular capillary pressure (PGC) and stop flow pressure (effect in words) ([2]; OA-treated rats, end of eight weeks): prevented these changes
mean arterial blood pressure (effect in words) ([2]; OA-treated rats, intra-arterial cannulation under anesthesia): reduced to the normal range
glomerular hemodynamics (effect in words) ([2]; normal rats, end of eight weeks): did not alter glomerular hemodynamics
mean arterial blood pressure (effect in words) ([2]; normal rats, under anesthesia): did not alter MAP
systolic blood pressure by tail cuff (effect in words) ([3]; OA-dosed conscious rats): significant but partial decrease in systolic BP
systolic blood pressure by tail cuff (effect in words) ([3]; normal conscious rats): did not alter blood pressure in normal rats
